For one compound, AC40 results are on record in PubChem BioAssay AID652072 (Broad Institute, 2013).

The test concerns LOX IMVI melanoma, caspase 3/7 luminescence, apoptosis. The test is described as follows: caspase 3/7 activation in LOX IMVI melanoma cells, dose response, mechanism study for HRAS target identification, cell-based, luminescence, multiple timepoints, dry powder (AID 652072). As to conditions: measured here: caspase 3/7, timepoint 3.

Records with an inconclusive call do not appear.

With `CCC(=O)N(c1ccc(OC)c(Cl)c1)C(C(=O)NCCc1ccccc1)c1cccs1` (stereo unspecified), the AC40 is more than 35 µM.
